Experimental data from the supplement of paper PMC8967900.

Assays:
Test in all cases: selective drug sensitivity score (sDSS, relative to normal bone marrow) (sDSS (score)); higher = more potent and effective on the cell line relative to normal bone marrow cells
Conditions in all cases: 72 h
TANOUE = test system: TANOUE
HPB-ALL = test system: HPB-ALL
NALL-1 = test system: NALL-1
CCRF-CEM = test system: CCRF-CEM
KASUMI-10 = test system: KASUMI-10
REH = test system: REH
MHH-CALL-4 = test system: MHH-CALL-4
LC4-1 = test system: LC4-1
DND-41 = test system: DND-41
380 = test system: 380
KASUMI-2 = test system: KASUMI-2
MHH-CALL-2 = test system: MHH-CALL-2
TMD5 = test system: TMD5
PF-382 = test system: PF-382
ALL-SIL = test system: ALL-SIL
ALL-PO = test system: ALL-PO
KARPAS-45 = test system: KARPAS-45
RPMI-8402 = test system: RPMI-8402
SEM cells = test system: SEM cells
RCH-ACV = test system: RCH-ACV
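Note: ALL cell lines in 384-well plates, five doses spanning 10,000-fold, each plate scaled between vehicle and 100 µmol/L benzalkonium chloride controls, sDSS an adapted area-under-curve metric.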

Structure (SMILES)	selective drug sensitivity score (TANOUE)	selective drug sensitivity score (HPB-ALL)	selective drug sensitivity score (NALL-1)	selective drug sensitivity score (CCRF-CEM)	selective drug sensitivity score (KASUMI-10)	selective drug sensitivity score (REH)	selective drug sensitivity score (MHH-CALL-4)	selective drug sensitivity score (LC4-1)	selective drug sensitivity score (DND-41)	selective drug sensitivity score 380	selective drug sensitivity score (KASUMI-2)	selective drug sensitivity score (MHH-CALL-2)	selective drug sensitivity score (TMD5)	selective drug sensitivity score (PF-382)	selective drug sensitivity score (ALL-SIL)	selective drug sensitivity score (ALL-PO)	selective drug sensitivity score (KARPAS-45)	selective drug sensitivity score (RPMI-8402)	selective drug sensitivity score (SEM cells)	selective drug sensitivity score (RCH-ACV)
CCn1c(-c2nonc2N)nc2c(C#CC(C)(C)O)ncc(OC[C@H]3CCCNC3)c21 (top concentration 10000 nM)	-1.12	3.98	-0.32	11.9	0.88	12.9	2.98	1.08	-1.12	8.58	6.38	3.48	-1.12	4.48	6.68	8.18	6.28	6.48	5.28	17.1
Nc1ncnc2c1nc(N)n2[C@@H]1O[C@H](CO)[C@@H](O)[C@H]1O [8-amino-adenosine] (top concentration 50000 nM)	0.98	-3.82	2.08	6.48	3.28	2.88	2.18	7.78	-0.62	9.38	6.08	3.28	2.68	0.18	2.68	5.48	-3.32	0.18	5.08	6.68
Cn1cnc2c(F)c(Nc3ccc(Br)cc3Cl)c(C(=O)NOCCO)cc21 [Selumetinib] (top concentration 10000 nM)	-4.1	-4.1	-4.1	2	-3.5	-4.1	4.2	0.7	0.4	9.6	7.5	8.5	3.1	-1.8	-4.1	-2.8	-3.8	-4.1	-0.3	-3.7
CO[C@H](C(=O)[C@@H](O)[C@@H](C)O)[C@@H]1Cc2cc3cc(O[C@H]4C[C@@H](O[C@H]5C[C@@H](O)[C@H](O)[C@@H](C)O5)[C@@H](O)[C@@H](C)O4)c(C)c(O)c3c(O)c2C(=O)[C@H]1O[C@H]1C[C@@H](O[C@H]2C[C@@H](O[C@H]3C[C@](C)(O)[C@H](O)[C@@H](C)O3)[C@H](O)[C@@H](C)O2)[C@H](O)[C@@H](C)O1 [Plicamycin] (top concentration 10000 nM)	-14.4	7.44	-17	-11.3	-2.36	-13.4	-7.26	-16.7	0.44	7.14	-17.2	-6.26	-13.8	-12.1	-1.46	-15.9	-11.1	-5.86	-16.6	-17.3
Cn1ncc(Cl)c1-c1cc(C(=O)N[C@H](CN)Cc2ccc(F)c(F)c2)oc1Cl [Uprosertib] (top concentration 10000 nM)	-1.2	-1.4	-1.4	10.4	-1.4	9.6	4.6	-1.2	-1.3	0.6	8.3	2.1	1.2	4.6	1.5	9	5.6	3.4	4.5	8.3
O=C(CCCCCCNC(=O)c1cnc(N(c2ccccc2)c2ccccc2)nc1)NO [Rocilinostat] (top concentration 10000 nM)	-0.26	5.54	-0.66	4.64	4.24	6.04	3.74	8.24	3.54	8.54	10.2	11.2	0.04	4.84	9.14	5.84	10	4.64	4.74	9.24
CC(=O)c1cc2c(o1)C(=O)c1ccccc1C2=O [Napabucasin] (top concentration 20000 nM)	-4.88	-0.98	-7.38	-1.08	0.92	-1.58	0.12	-0.38	-0.18	-2.08	-3.38	3.72	-1.28	-0.28	2.22	0.92	1.22	-6.08	0.52	-1.38
CC(C)Nc1cc(-c2c[nH]c(C(=O)N[C@H](CO)c3cccc(Cl)c3)c2)c(Cl)cn1 [Ulixertinib] (top concentration 10000 nM)	-4.38	-2.68	3.92	2.82	-3.08	-1.08	2.22	0.32	4.72	-4.38	7.82	2.72	2.12	-0.28	3.02	6.72	-0.18	-1.38	1.62	2.82
NC1(C(=O)N[C@@H](CCO)c2ccc(Cl)cc2)CCN(c2ncnc3[nH]ccc23)CC1 [AZD-5363] (top concentration 10000 nM)	-2.88	1.82	4.72	9.32	1.62	11.3	5.52	1.22	-1.88	8.82	7.32	7.82	6.62	4.42	3.52	5.82	5.82	3.52	4.82	10.9
Cn1cc(-c2ccc(F)c(C(F)(F)F)c2)nc1C1CCN(c2ncnc3[nH]ncc23)CC1 (top concentration 10000 nM)	0.96	-0.14	0.46	0.86	-0.14	-0.14	1.86	5.56	1.16	12.3	13.3	0.26	-0.14	-0.14	0.06	0.66	0.06	-0.14	-0.14	8.26
Cc1nc(Nc2n[nH]c3c2CN(C(=O)N[C@H](CN(C)C)c2ccccc2)C3(C)C)c2sccc2n1 (top concentration 10000 nM)	-11.1	-1.72	-7.42	6.98	1.68	-3.72	0.88	3.98	0.98	22.2	3.28	0.38	-7.92	1.98	-5.82	5.58	9.48	6.38	2.28	22.7
CO[C@H]1C[C@@H]2CC[C@@H](C)[C@@](O)(O2)C(=O)C(=O)N2CCCC[C@H]2C(=O)O[C@H]([C@H](C)C[C@@H]2CC[C@@H](O)[C@H](OC)C2)CC(=O)[C@H](C)/C=C(\C)[C@@H](O)[C@@H](OC)C(=O)[C@H](C)C[C@H](C)/C=C/C=C/C=C/1C [Sirolimus] (top concentration 100 nM)	-3.76	-2.46	-3.66	3.34	-3.76	0.54	-0.76	1.74	-0.16	17.4	2.84	0.84	-3.56	1.84	-0.86	0.14	-0.16	-1.76	1.34	11.1
Cc1ncc(Cl)cc1NCc1ccc(C(=O)N[C@@H](CC2CCCC2)C(=O)NC2CC2)s1 (top concentration 5000 nM)	-0.94	1.36	-0.94	-0.94	2.46	-0.84	-0.94	-0.94	-0.94	9.86	4.56	-0.24	-0.94	-0.94	4.16	-0.94	-0.94	-0.94	-0.94	1.46
Nc1ccccc1NC(=O)c1ccc(CNc2nccc(-c3cccnc3)n2)cc1 [Mocetinostat] (top concentration 10000 nM)	-8.46	8.64	-3.16	5.54	6.74	3.94	8.04	9.14	7.44	15.5	6.74	7.74	1.44	6.04	9.14	7.24	8.84	6.34	9.04	9.54
CC(=O)O[C@]1(C(C)=O)CC[C@H]2[C@@H]3C=C(C)C4=CC(=O)CC[C@]4(C)[C@H]3CC[C@@]21C [Megestrol_acetate] (top concentration 10000 nM)	-0.38	-0.58	6.52	-0.28	-0.58	0.52	7.52	-0.38	16.8	7.02	-0.58	14.5	7.82	0.32	-0.48	17.9	2.72	0.52	3.42	4.32
CN(C)C1CCN(C(=O)c2ccc(NC(=O)Nc3ccc(-c4nc(N5CCOCC5)nc(N5CCOCC5)n4)cc3)cc2)CC1 [Gedatolisib] (top concentration 1000 nM)	-1.04	-0.04	1.16	7.26	1.36	9.16	3.66	3.06	4.46	14.8	7.56	3.26	0.66	5.06	2.66	1.06	3.76	3.66	1.16	17.5
